Results taken from patent publication US5476840A, “New hexapeptidic derivatives, preparation process and use as medicaments of these new derivatives” (Roussel Uclaf, priority 1992, dated 1995).
Ends that are not written are not given here.

What was measured:
[1] = test system: pressure response to endothelin; assay: Antagonism of the effects of endothelin in a demedullated rat (inhibition of the pressure response to endothelin 1); format: in vivo
Procedure: Male Sprague-Dawley rats are anaesthetized with Nembutal (60 mg/kg) injected by intraperitoneal route. The animals are then demedullated, put under assisted respiration (1 ml/100 g--50 insufflations per minute), then the vagus nerves are sectioned. A carotid artery is catheterized to record the arterial pressure and the products to be studied are injected into the pudendal vein. Ten minutes after the intravenous injection of the solvent or compounds to be tested, the animals receive administrations of endothelin 1 in a cumulative manner (1, 3, 10 and 30 μg/kg i.v.) every 2 minutes. The antagonistic activity is expressed as a percentage of the inhibition of the pressure response to endothelin administered alone, at doses of 3 and 10 μg/kg.

[2] = test system: demedullated rat; assay: Vasoconstrictive activity in a demedullated rat (increase in mean arterial pressure); format: in vivo; conditions: dose 10 mg/kg, venous route, demedullated male Sprague-Dawley rat
Procedure: Male Sprague-Dawley rats are anaesthetized with Nembutal (60 mg/kg) injected by intraperitoneal route. The animals are then demedullated, put under assisted respiration (1 ml/100 g--50 insufflations per minute), then the vagus nerves are sectioned. A carotid artery is catheterized to record the arterial pressure and the products to be studied are injected into the pudendal vein.
The animals receive endothelin 1 or the compound to be tested as cumulative injections by venous route, the administrations being spaced 2 minutes apart.
The increase in mean arterial pressure (MAP) induced by each compound is measured and expressed as a percentage variation relative to the initial pressure.

HAAIIW [Example 1]
Percent change in pressure response to endothelin (negative = reduction) ([1]; dose 5 μg/kg i.v., 3 μg endothelin): -27 | Percent change in pressure response to endothelin (negative = reduction) ([1]; dose 5 μg/kg i.v., 10 μg endothelin): -19 | Percent change in pressure response to endothelin (negative = reduction) ([1]; dose 10 μg/kg i.v., 3 μg endothelin): -60 | Percent change in pressure response to endothelin (negative = reduction) ([1]; dose 10 μg/kg i.v., 10 μg endothelin): -33 | % increase of MAP [2]: +8%
